Columns and labels:
[1] = Stability assay before and after drying, HPLC-PDA (Example 34); assay type: physicochemical; settings: for Amount: 5 mg in 5 mL
Description: An assay of TRI 50c and its sodium and lysine salts before and after drying.
For sample analysis, 5 mg of dried and non-dried material was weighed in a 5 mL volumetric flask and dissolved in 1 mL acetonitrile and filled up with demineralised water to 5 mL.
The quantitative evaluation was performed using an HPLC-PDA method.

[2] = tested on: dynamic coagulation markers; assay: Simulated mitral valve repair on hypothermic CPB in dogs (Example 48); assay type: in vivo, beagle dogs; settings: intravenous
Description: Following a dose ranging study in conscious dogs, six beagle dogs were placed on CPB and underwent a simulated mitral valve repair. A range of dynamic coagulation markers were measured, including thrombin clotting time (TT), activated partial thromboplastin time (APTT), activated clotting time (ACT), ecarin clotting time (ECT), whole blood thrombin clotting time, platelet counts and function tests. In addition, pre and post-operative echocardiograms and intra-operative blood loss were evaluated. […] By virtue of its predictable anticoagulant efficacy and controlled duration of action, TGN 255 offers potential in on pump and off pump coronary bypass procedures.

[3] = Comparative storage stability of sodium and calcium salts (Example 49); assay type: physicochemical; settings: for Tri50c (w/w %, LOD corr.): corrected for loss on drying
Text: In both studies the active pharmaceutical ingredient was stored in grip sealed double bags within a PE/PP screw cap closed cylinder.

[4] = tested on: thrombin time and APTT; assay: Intravenous administration in beagle dogs, PK/PD (Example 36); assay type: in vivo; settings: 1.0 mg/kg i.v.; for thrombin time at pharmacodynamic C max: 2 minutes post dose, base line 14.3 seconds, monosodium salt
Description: Blood samples were taken into 3.8% tri-sodium citrate (1+8) at pre dose, 2, 5, 10, 20, 30, minutes post dose and then at 1, 2, 3, 4, 6, 8, 12 and 24 hours post dose. Plasma was prepared by centrifugation and frozen at minus 20° C. pending analysis.

[5] = Excretion of administered dose; settings: in vivo
Text: It will be appreciated that such short duration of action (rapid offset of activity) achieved by a boronic acid is well suited for the prevention of thrombosis in intermittent apheresis procedures, and that oral administration is particularly useful in the case of elective intermittent apheresis procedures. In one class of embodiments, the apheresis procedure is haemodialysis (strictly CIHD); in another, the procedure is not haemodialysis.

[6] = tested on: thrombin time (TT); assay: Intravenous administration into humans (Examples 40 and 46); assay type: in vivo
Description: The test consisted of three groups, each of six males. From each group 5 men were given the active ingredient and 1 was given a placebo.
Total I.V. administered doses were: • 82 mg (7 mg intravenous bolus (over 30s) followed by an infusion of 25 mg/h for 3 hours). • 130 mg (10 mg intravenous bolus (over 30s) followed by an infusion of 40 mg/h for 3 hours). • 120 mg (by infusion of 40 mg/h for 3 hours). […] Within 30 minutes after cessation of infusion there was a fall to a level at which clinically significant anticoagulation is not expected.

[7] = Solubility of TRI 50c monosodium salt at different pH values; assay type: physicochemical
Description: It may be desirable to make aqueous solutions of boronic acid drugs for administering them. […] However, a solution with a pH of 9.5 may be unacceptable or undesirable. Accordingly, a pharmaceutically acceptable organic acid may be included in the particulate formulation in an amount selected to reduce the pH to a value at which the solution is more acceptable but at which a solution of drinkable quantity (e.g. about 50 ml to about 150 ml) may be formed by reconstituting the particulate formulation. As the organic acid may be mentioned citric acid, tartaric acid or malic acid, for example. In many instances, citric acid is chosen.
In a first series of experiments, this amount of the salt was dissolved in 50 ml water to form a solution of approximately pH 9.5. Dilute aqueous HCl was added to determine how much the pH could be reduced before precipitation occurred.
In a second series of experiments, the same amount of the salt was dissolved in 150 ml water, and citric acid was added. […] Since acid solutions tend to be more palatable than alkaline ones, and citric acid is a common flavouring agent, this behaviour of the salt is highly beneficial. […] In general, it is contemplated that the boronate will be formulated to form a reconstituted solution having a pH of from 4 to 8, e.g. 4 to 7, optionally 5 to 6.

[8] = biological target: Plasmin (Homo sapiens, UniProt P00747); assay: Plasmin inhibition, Method B (Example 52); assay type: biochemical; settings: Plasmin relative to Thrombin
Description: 50 μl Plasmin (75 ng/ml in assay buffer) and 20 μl vehicle or compound solution were added to 110 μl assay buffer (100 mM Na orthophosphate (80% Na2HPO4 and 20% NaH2PO4), 200 mM NaCl, 0.5% PEG 6000, 0.02% Na azide, pH 7.5) and incubated for 5 minutes at 37° C.

[9] = dry (1 week in desiccator over phosphorus pentoxide)

Plasmin, sequence (P00747 581-810 limits assumed, species assumed): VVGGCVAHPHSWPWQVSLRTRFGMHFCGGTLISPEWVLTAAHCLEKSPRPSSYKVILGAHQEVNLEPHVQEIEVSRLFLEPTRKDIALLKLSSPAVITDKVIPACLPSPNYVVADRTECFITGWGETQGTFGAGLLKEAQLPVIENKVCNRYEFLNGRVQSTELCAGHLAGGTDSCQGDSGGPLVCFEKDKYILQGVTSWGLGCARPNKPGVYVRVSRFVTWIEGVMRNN
Plasmin, sequence (P00747 97-580 limits assumed, species assumed): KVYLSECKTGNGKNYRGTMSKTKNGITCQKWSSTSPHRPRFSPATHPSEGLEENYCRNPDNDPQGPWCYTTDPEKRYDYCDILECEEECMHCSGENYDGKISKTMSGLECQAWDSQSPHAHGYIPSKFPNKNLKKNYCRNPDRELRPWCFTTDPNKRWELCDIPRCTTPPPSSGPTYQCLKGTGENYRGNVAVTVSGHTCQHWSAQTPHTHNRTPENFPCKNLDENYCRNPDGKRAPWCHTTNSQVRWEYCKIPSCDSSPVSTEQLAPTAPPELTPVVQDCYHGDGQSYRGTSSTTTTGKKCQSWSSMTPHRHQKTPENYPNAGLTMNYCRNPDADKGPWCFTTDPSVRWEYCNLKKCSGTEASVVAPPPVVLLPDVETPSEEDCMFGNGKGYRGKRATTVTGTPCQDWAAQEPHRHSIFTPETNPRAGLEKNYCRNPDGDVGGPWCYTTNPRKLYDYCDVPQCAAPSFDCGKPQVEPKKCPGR

COCCC[C@H](NC(=O)[C@@H]1CCCN1C(=O)[C@@H](Cc1ccccc1)NC(=O)OCc1ccccc1)B(O)O.[Na+] [TRI 50c monosodium salt, Cbz-(R)-Phe-(S)-Pro-(R)-Mpg-B(OH)2 monosodium salt]
Purity [1, 9]: 98.81 % area | Amount [1, 9]: 1024 µg/mL | Purity ([1]; non-dried): 98.61 % area | Amount ([1]; non-dried): 1005.8 µg/mL | anticoagulation during bypass and surgery [2]: excellent anticoagulation during bypass and surgery with little bleeding | Appearance ([3]; T = 0): Powdery | Color ([3]; T = 0): White | Tri50c (w/w %) ([3]; T = 0): 101.1 w/w % | Tri50c (w/w %, LOD corr.) ([3]; T = 0): 101.5 w/w % | Appearance ([3]; T = 1, 25° C./60% r.h.): powdery | Color ([3]; T = 1, 25° C./60% r.h.): white | Tri50c (w/w %) ([3]; T = 1, 25° C./60% r.h.): 99.5 w/w % | Tri50c (w/w %, LOD corr.) ([3]; T = 1, 25° C./60% r.h.): 103.6 w/w % | Appearance ([3]; T = 1, 40° C./75% r.h.): powdery | Color ([3]; T = 1, 40° C./75% r.h.): white | Tri50c (w/w %) ([3]; T = 1, 40° C./75% r.h.): 90.3 w/w % | Tri50c (w/w %, LOD corr.) ([3]; T = 1, 40° C./75% r.h.): 94.5 w/w % | Appearance ([3]; T = 1, −20° C.): powdery | Color ([3]; T = 1, −20° C.): white | Tri50c (w/w %) ([3]; T = 1, −20° C.): 103.1 w/w % | Tri50c (w/w %, LOD corr.) ([3]; T = 1, −20° C.): 104.3 w/w % | Appearance ([3]; T = 3, 25° C./60% r.h.): powdery | Color ([3]; T = 3, 25° C./60% r.h.): white | Tri50c (w/w %) ([3]; T = 3, 25° C./60% r.h.): 95.3 w/w % | Tri50c (w/w %, LOD corr.) ([3]; T = 3, 25° C./60% r.h.): 100.4 w/w % | Appearance ([3]; T = 3, 40° C./75% r.h.): viscous | Color ([3]; T = 3, 40° C./75% r.h.): brown | Tri50c (w/w %) ([3]; T = 3, 40° C./75% r.h.): 48.6 w/w % | Tri50c (w/w %, LOD corr.) ([3]; T = 3, 40° C./75% r.h.): 52.2 w/w % | Appearance ([3]; T = 3, −20° C.): powdery | Color ([3]; T = 3, −20° C.): white | Tri50c (w/w %) ([3]; T = 3, −20° C.): 102.5 w/w % | Tri50c (w/w %) ([3]; T = 12, 25° C./60% r.h.): 70.5 w/w % | Tri50c (w/w %, LOD corr.) ([3]; T = 12, 25° C./60% r.h.): 71.2 w/w % | thrombin time at pharmacodynamic C max ([4]; listed as TRI 50c sodium salt): 154 s | thrombin time at pharmacodynamic C max [4]: 154.4 s | Thrombin time ([4]; one hour post dose): 26 s | elevation in the APTT ([4]; post dose): 1.3 times | tolerance ([4]; total duration of the study): tolerated well with no adverse events | Thrombin clotting time elevation above base line ([4]; two minutes following dosing): 10.8 times | APTT post dose ([4]; from 19 seconds): 25 s | administered dose excreted as TRI 50c species (acid and corresponding boronate species) [5]: 14% | time for plasma concentrations of the active principle to return to tolerably low levels ([6]; after termination of intravenous administration): ≤ 30 min | time after cessation of infusion to fall to a level at which clinically significant anticoagulation is not expected ([6]; i.v. infusion): ≤ 30 min | distribution phase, time after the end of infusion ([6]; i.v. infusion for 3 hours): ≤ 30 min | effect on thrombin time (TT) ([6]; intravenous infusion): rapid, dose-related increase in the thrombin time (TT) | overall terminal elimination half life ([6]; plasma, i.v.): about 4 hours | safety assessments ([6]; single i.v. doses 82, 130, 120 mg): No clinically significant findings | adverse clinical events ([6]; study period of 24 hours, any dose): no adverse clinical events of either a general or cardiovascular nature | concentration of boronate salt solution that can be formed ([7]; pH of about 9.5): up to 600 mg/ml | pH below which the salt tended to precipitate ([7]; salt equivalent to 600 mg TRI 50c in 50 ml water, dilute aqueous HCl added): below 9 | pH reached before precipitation occurred ([7]; salt equivalent to 600 mg TRI 50c in 150 ml water, citric acid added): 3.7-3.8

COCCC[C@H](NC(=O)[C@@H]1CCCN1C(=O)[C@@H](Cc1ccc(F)cc1)NC(=O)OCc1ccccc1)B([O-])O.[Na+] [TRI 50f]
Selectivity [8]: >1000

Reference: patent US20050282757A1, “Peptide boronic acid compounds useful in anticoagulation” (Trigen Limited, priority 2002, published 2005)
